# Target: T1, BtSULT (Bacteroides thetaiotaomicron, UniProt Q8AAP8)
# T1 sequence (Q8AAP8 1-368): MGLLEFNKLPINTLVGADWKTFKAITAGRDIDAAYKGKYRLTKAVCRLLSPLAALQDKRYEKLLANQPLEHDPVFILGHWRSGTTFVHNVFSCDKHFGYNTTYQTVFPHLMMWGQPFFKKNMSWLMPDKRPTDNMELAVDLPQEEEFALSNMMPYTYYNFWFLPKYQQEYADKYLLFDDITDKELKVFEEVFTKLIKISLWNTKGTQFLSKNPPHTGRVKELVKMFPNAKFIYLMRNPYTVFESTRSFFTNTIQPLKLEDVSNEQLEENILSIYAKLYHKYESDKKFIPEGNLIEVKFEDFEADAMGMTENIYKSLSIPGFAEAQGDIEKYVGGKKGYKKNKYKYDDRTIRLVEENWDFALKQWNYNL
# Assay: UPLC-MS of cholesterol sulfate formation
# Type: biochemical
# Details: 100 uM PAPS, 50 uM cholesterol acceptor, pH 7, 37 °C; sulfonate donor
smiles,measurement,value
Nc1ncnc2c1ncn2[C@@H]1O[C@H](COP(=O)(O)OS(=O)(=O)O)[C@@H](OP(=O)(O)O)[C@H]1O [adenosine 3'-phosphate-5'-phosphosulfate],UPLC-MS of cholesterol sulfate formation,BtSULT encodes a sulfotransferase that utilizes PAPS to sulfonate Ch
